These results are taken from patent publication US20150284394A1, “INHIBITORS OF BRUTON'S TYROSINE KINASE” (HOFFMANN-LA ROCHE INC., priority 2012, published 2015).

The structures appear in SMILES notation. Where only a bound is given, the exact number is not on record here.

In one test the test system is B cells in human blood. As to the kind of experiment: Inhibition of B cell activation in whole blood measured by CD69 expression. The class given is cell-based. Particulars: anti-IgM stimulation, 20 hours, CD69-positive cells that are also CD20-positive, read-out: HWB IC50. The method, then: A procedure to test the ability of Btk inhibitors to suppress B cell receptor-mediated activation of B cells in human blood is as follows:
Human whole blood (HWB) is obtained from healthy volunteers, with the following restrictions: 24 hr drug-free, non-smokers. Blood is collected by venipuncture into Vacutainer tubes anticoagulated with sodium heparin. Test compounds are diluted to ten times the desired starting drug concentration in PBS (20×), followed by three-fold serial dilutions in 10% DMSO in PBS to produce a nine point dose-response curve. 5.5 μl of each compound dilution is added in duplicate to a 2 ml 96-well V bottom plate (Analytical Sales and Services, #59623-23); 5.5 μl of 10% DMSO in PBS is added to control and no-stimulus wells. HWB (100 μl) is added to each well, and after mixing the plates are incubated at 37 C, 5% CO2, 100% humidity for 30 minutes. Goat F(ab′)2 anti-human IgM (Southern Biotech, #2022-14) (10 μl of a 500 μg/ml solution, 50 μg/ml final concentration) is added to each well (except the no-stimulus wells) with mixing and the plates are incubated for an additional 20 hours.
At the end of the 20 hour incubation, samples are incubated with florescent-probe-labeled anti-bodies (15 μl PE Mouse anti-Human CD20, BD Pharmingen, #555623, and/or 20 ul APC Mouse anti-Human CD69, BD Pharmingen #555533) for 30 minutes, at 37 C, 5% CO2, 100% humidity. Included are induced control, unstained and single stains for compensation adjustments and initial voltage settings. Samples are then lysed with 1 ml of 1× Pharmingen Lyse Buffer (BD Pharmingen #555899), and plates are centrifuged at 1800 rpm for 5 minutes. Supernatants are removed via suction and the remaining pellets are lysed again with another 1 ml of 1× Pharmingen Lyse Buffer, and plates are spun down as before. Supernatants are aspirated and remaining pellets are washed in FACs buffer (PBS+1% FBS). After a final spin, the supernantants are removed and pellets are resuspended in 180 μl of FACs buffer. Samples are transferred to a 96 well plate suitable to be run on the HTS 96 well system on the BD LSR II flow cytometer.
Using appropriate excitation and emission wavelengths for the fluorophores used, data are acquired and percent positive cell values are obtained using Cell Quest Software. Results are initially analyzed by FACS analysis software (Flow Jo). […] The IC50 values are calculated using XLfit software version 3, equation 201.

A further test has as its target Bruton's Tyrosine Kinase (Homo sapiens, UniProt Q06187). The test can be described thus: Bruton's Tyrosine Kinase (BTK) Inhibition TR-FRET competition assay. Particulars: inactivated state of BTK; Kinase Tracer 178; 18-24 h at 14° C. The class given is binding. The method, then:
This BTK competition assay measures compound potency (IC50) for the inactivated state of Bruton's Tyrosine Kinase using FRET (Forster/Fluorescence Resonance Energy Transfer) technology. The BTK-Eu complex was incubated on ice one hour prior to use at a starting concentration of 50 nM BTK-Bioease™: 10 nM Eu-streptavidin (Perkin-Elmer Catalog# AD0062). The assay buffer consisted of 20 mM HEPES (pH 7.15), 0.1 mM DTT, 10 mM MgCl2, 0.5 mg/ml BSA with 3% Kinase Stabilizer (Fremont Biosolutions, Catalog # STB-K02). After 1 h, the reaction mixture from above was diluted 10 fold in assay buffer to make 5 nM BTK: 1 nM Eu-Streptavidin complex (donor fluorophore). […] of a mixture of 0.11 nM BTK-Eu and 0.11 nM Kinase Tracer 178 (Invitrogen, Catalog # PV5593,) with BTK-Eu alone as no negative control, was then dispensed into 384-well flat bottom plates (Greiner, 784076). Compounds to be tested in assay were prepared as 10× concentrations and serial dilution in half-log increments was performed in DMSO so as to generate 10 point curves. To initiate the FRET reaction, compounds prepared as 10× stock in DMSO was added to the plates and the plates were incubated 18-24 h at 14° C.
After the incubation the plates were read on a BMG Pherastar Fluorescent plate reader (or equivalent) and used to measure the emission energy from the europium donor fluorophore (620 nm emission) and the FRET (665 nm emission). The negative control well values were averaged to obtain the mean minimum. The positive “no inhibitor” control wells were averaged to obtain the mean maximum. Percent of maximal FRET was calculated using following equation:
% max FRET=100×[(FSRcmpd−FSRmean min)/(FSRmean max−FSRmean min)]
where FSR=FRET Signal ratio. % Max FRET curves were plotted in Activity Base (Excel) and the IC50(%), hill slope, z′ and % CV were determined. The mean IC50 and standard deviation will be derived from duplicate curves (singlet inhibition curves from two independent dilutions) using Microsoft Excel.
A general note: In TR-FRET formats the signal depends on donor and acceptor labels being close together.

Bruton's Tyrosine Kinase, sequence (Q06187 whole entry): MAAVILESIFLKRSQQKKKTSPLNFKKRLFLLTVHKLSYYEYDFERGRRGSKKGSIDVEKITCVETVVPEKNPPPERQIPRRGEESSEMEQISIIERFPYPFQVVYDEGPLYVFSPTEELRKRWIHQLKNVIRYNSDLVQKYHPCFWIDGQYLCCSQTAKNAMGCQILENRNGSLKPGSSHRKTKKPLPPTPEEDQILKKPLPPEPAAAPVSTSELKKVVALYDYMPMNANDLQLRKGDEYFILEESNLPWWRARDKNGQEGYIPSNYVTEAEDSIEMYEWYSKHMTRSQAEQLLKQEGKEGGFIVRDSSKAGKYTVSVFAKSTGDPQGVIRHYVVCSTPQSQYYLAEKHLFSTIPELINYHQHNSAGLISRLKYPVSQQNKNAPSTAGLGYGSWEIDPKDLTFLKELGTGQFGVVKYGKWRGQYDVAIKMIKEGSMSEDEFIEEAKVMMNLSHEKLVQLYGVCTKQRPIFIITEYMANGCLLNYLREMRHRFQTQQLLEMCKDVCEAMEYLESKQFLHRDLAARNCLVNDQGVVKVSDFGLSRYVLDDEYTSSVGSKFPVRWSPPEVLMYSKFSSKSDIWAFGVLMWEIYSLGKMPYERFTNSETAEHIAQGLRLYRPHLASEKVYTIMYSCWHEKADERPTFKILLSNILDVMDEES

On to `CC(C)c1ccc(C(=O)NCc2ccc(-c3ncnc4[nH]c(-c5cnn(C)c5)cc34)cc2)cc1` [Compound I-23, 4-Isopropyl-N-{4-[6-(1-methyl-1H-pyrazol-4-yl)-7H-pyrrolo[2,3-d]pyrimidin-4-yl]-benzyl}-benzamide], for which the half-inhibitory concentration (IC50) is 1400 nM with B cells in human blood and 7 nM at Bruton's Tyrosine Kinase.

For `Cn1cc(-c2cc3c(-c4ccc(CNC(=O)c5cc6c(s5)CCCC6)cc4)ncnc3[nH]2)cn1` [Compound I-26, 4,5,6,7-Tetrahydro-benzo[b]thiophene-2-carboxylic acid 4-[6-(1-methyl-1H-pyrazol-4-yl)-7H-pyrrolo[2,3-d]pyrimidin-4-yl]-benzylamide], the IC50 in the test with B cells in human blood came to 608 nM; on Bruton's Tyrosine Kinase, 1 nM.

For the molecule `Cn1cc(-c2cc3c(N4CCC(CNC(=O)c5ccc(C(C)(C)C)cc5)CC4)ncnc3[nH]2)cn1` [Compound I-20, 4-tert-Butyl-N-{1-[6-(1-methyl-1H-pyrazol-4-yl)-7H-pyrrolo[2,3-d]pyrimidin-4-yl]-piperidin-4-ylmethyl}-benzamide], the concentration for half-maximal inhibition (IC50) in the test on B cells in human blood is 3000 nM; at Bruton's Tyrosine Kinase it was 62 nM.

Regarding `CN(C)CCn1cc(-c2cc3c(-c4ccc(CNC(=O)N5Cc6ccccc6C5)c(F)c4)ncnc3[nH]2)cn1` [Compound I-44, 1,3-Dihydro-isoindole-2-carboxylic acid 4-{6-[1-(2-dimethylamino-ethyl)-1H-pyrazol-4-yl]-7H-pyrrolo[2,3-d]pyrimidin-4-yl}-2-fluoro-benzylamide], the 50% inhibitory concentration (IC50) with B cells in human blood stood at 188 nM; at Bruton's Tyrosine Kinase, 0.52 nM.

As to `Cn1cc(-c2cc3c(-c4ccc(CNC(=O)c5ccc(C6CC6)cc5)cc4)ncnc3[nH]2)cn1` [Compound I-22, 4-Cyclopropyl-N-{4-[6-(1-methyl-1H-pyrazol-4-yl)-7H-pyrrolo[2,3-d]pyrimidin-4-yl]-benzyl}-benzamide], the values for the IC50 in the test on B cells in human blood and at Bruton's Tyrosine Kinase were 5480 nM and 8 nM, respectively.

Take `CNC(=O)c1cc2c(-c3ccc(CNC(=O)c4ccc(C(C)(C)C)cc4)c(F)c3)ncnc2[nH]1` [Compound I-17, 4-{4-[(4-tert-Butyl-benzoylamino)-methyl]-3-fluoro-phenyl}-7H-pyrrolo[2,3-d]pyrimidine-6-carboxylic acid methylamide]: the figures for the IC50 in the test with B cells in human blood and on Bruton's Tyrosine Kinase were 16200 nM and 98 nM, respectively.

With `CC(C)(C)c1ccc(C(=O)NCc2ccc(-c3ncnc4[nH]c(-c5cnn(CC(=O)O)c5)cc34)cc2F)cc1` [Compound I-46, [4-(4-{4-[(4-tert-Butyl-benzoylamino)-methyl]-3-fluoro-phenyl}-7H-pyrrolo[2,3-d]pyrimidin-6-yl)-pyrazol-1-yl]-acetic acid], the half-maximal inhibitory concentration (IC50) is > 50000 nM with B cells in human blood and 1 nM at Bruton's Tyrosine Kinase.

`Cn1cc(-c2cc3c(-c4ccc(CNC(=O)c5ccc(C(C)(C)C)cc5)c(F)c4)ncnc3[nH]2)cn1` [Compound I-27, 4-tert-Butyl-N-{2-fluoro-4-[6-(1-methyl-1H-pyrazol-4-yl)-7H-pyrrolo[2,3-d]pyrimidin-4-yl]-benzyl}-benzamide]: the IC50 in the test with B cells in human blood was determined as 812 nM; on Bruton's Tyrosine Kinase, 2 nM.

As for `Cn1cc(-c2cc3c(-c4ccc(CNC(=O)c5nc(C(C)(C)C)no5)c(F)c4)ncnc3[nH]2)cn1` [Compound I-49, 3-tert-Butyl-[1,2,4]oxadiazole-5-carboxylic acid 2-fluoro-4-[6-(1-methyl-1H-pyrazol-4-yl)-7H-pyrrolo[2,3-d]pyrimidin-4-yl]-benzylamide], the 50% inhibitory concentration (IC50) in the test on B cells in human blood was 2 nM; at Bruton's Tyrosine Kinase, 0.11 nM.

For the molecule `CN(C)CCn1cc(-c2cc3c(-c4ccc(CNC(=O)N5CC(OC(C)(C)C)C5)c(F)c4)ncnc3[nH]2)cn1` [Compound I-43, 3-tert-Butoxy-azetidine-1-carboxylic acid 4-{6-[1-(2-dimethylamino-ethyl)-1H-pyrazol-4-yl]-7H-pyrrolo[2,3-d]pyrimidin-4-yl}-2-fluoro-benzylamide], the IC50 with B cells in human blood was found to be 276 nM; on Bruton's Tyrosine Kinase, 0.6 nM.

A word on the IC50: it is the concentration that inhibits the measured activity by half.
